Experimental data from patent US20130316374A1, “BREAST CANCER DIAGNOSTICS” (IMBA - INSTITUT FUR MOLEKULARE BIOTECHNOLOGIE GMBH, priority 2010, published 2013).

Assays:
RANKL = RANKL expression in purified mammary epithelial cells (qRT-PCR, Western blot); type: in vivo, mouse; settings: nulliparous wild type females, 3 days after implantation/oral gavage
Protocol: a,b, MPA induces RANKL expression in mammary epithelial cells. Nulliparous wild type females were treated with oral gavage of DMBA or oil vehicle, s.c. implanted with slow-release MPA pellets, or treated with sham surgery. a, RANKL mRNA was determined in purified mammary epithelial cells by qRT-PCR 3 days after implantation/oral gavage. Data are shown as fold change compared to sham treatment+/−sem. n=3 mice per group. b, Expression of soluble (s) RANKL protein (19 kDa) was assayed on cell lysates from purified mammary epithelial cells by Western blot 3 days after treatment with oil vehicle, DMBA, MPA, or sham surgery. β-actin is shown as a loading control. […] Data are shown as percentage of tumor-free mice after the last DMBA challenge. No significant difference was found between the Cre+ and the Cre− control groups. Median tumor onset for Cre^+ controls was 9 days, for Cre^− controls 11 days, and for RANK^Δmam females 30 days after the last DMBA treatment. d, Representative Southern blot of MPA/DMBA-induced mammary tumors derived from RANK^flox/+; MMTV-Cre+ and RANK^flox/Δ; MMTV-Cre+ (RANK^Δmam) females. […]
Total RNA of tumors was prepared using the RNeasy Mini Kit (Qiagen), according to the manufacturer's instructions. Total RNA (2 μg) was subjected to quantitative (q)RT-PCR analysis. […]

mammary epithelial cells = assay: Epithelial proliferation in mammary glands, in situ Ki67 immunostaining; type: in vivo, mouse
Protocol: a, Epithelial proliferation in mammary glands of control littermates and RANK^Δmam females 3 days after sham treatment and MPA implantation. Proliferation was determined by in situ Ki67 immunostaining. b,c, Marked increase of the stem cell-enriched CD24^+CD49^high population (MaSC) in MPA-treated mammary glands in control but not in RANK^Δmam mammary glands. b, Representative FACS profiles showing CD24 and CD49 expression of lineage negative (CD31^− (endothelial cells) CD45^− (hematopoietic cells) […] (erythroid cells)) of mammary MaSCs from MPA- or sham-treated 8-week old virgin females. c, Quantification of MaSC-enriched CD24^+CD49^high population from mammary glands of MPA- or sham-treated virgin RANK^Δmam and littermate control females. For all MaSCs experiments mice were treated with MPA for 3 days. n=4 per group+/−sem. *P<0.05; ***P<0.001 (Student's t-test).
At least 1000 mammary gland epithelial cells were counted per mouse. n=3 mice per genotype. **P<0.005; ***P<0.001 (Student's t-test). b, Quantification of in situ Ki67 immunostained cells per acinus from mammary glands of control littermate and RANK^Δmam females on day 3 after MPA s.c. implantation. […] At least 1000 cells were counted per mammary gland. n=3 per genotype. In b, and c, data are shown as percentage of acini/ducts with low (<20% of epithelial cells are Ki67^+), medium (20-80% of epithelial cells are Ki67^+) and high (>80% of epithelial cells are Ki67^+) numbers of proliferating cells+/−sem. ***P<0.001; *P<0.03 (Student's t-test). d, Epithelial proliferation in mammary glands of control littermates and RANK^Δmam females 1 day after i.p. injection of PBS or RANKL (1 μg). Proliferation was determined in situ Ki67 immunostaining. Magnifications ×40. e, Quantification of epithelial proliferation 1 day after i.p. injection of PBS or RANKL (1 μg). Mean percentages of Ki67 positive cells+/−sem are shown. *P<0.03; n=5 (Student's t-test).
For histological analysis, 5 μm sections were cut and stained with hematoxylin and eosin (H&E). Whole-mount staining of mammary glands was performed as described. For immunoperoxidase staining paraffin-embedded sections were […] and antigenic epitopes exposed using a 10 mM citrate buffer or microwaving. Sections were incubated with antibodies to cytokeratine 5, cytokeratine 14, E-cadherin, anti-Ki67 (Novocastra) and anti-active Caspase 3 (Cell Signaling) and visualized using peroxidase-conjugated secondary antibodies. Histomorphometric indices (proliferation and apoptosis) were calculated as the number of positive epithelial cells divided by the total number of epithelial cells, with no fewer than 1000 nuclei for Ki67 stainings and no fewer than 5000 cells for active Caspase 3 staining counted per section.
Recently it has been reported that endogenous progesterone affects the numbers of Lin-CD24+CD49f^hi stem cells during pregnancy^15 and the estrous cycle^16. In both studies, the RANKL/RANK system was implicated based on in vivo whole body Ab blocking studies and RT-PCR expression, however, it was not known whether this is a direct effect of RANKL-RANK in mammary epithelial cells rather than a secondary effect. Therefore it was assayed whether progestins such as MPA can also expand Lin-CD24+CD49f^hi cells.

Molecule	RANKL mRNA and protein expression in mammary epithelial cells (RANKL)	MPA-induced proliferation of mammary epithelial cells (mammary epithelial cells; RANK^Δmam females)	acini with very low proliferation rates (Ki67) (mammary epithelial cells; RANK^Δmam females, day 3 after MPA s.c. implantation)	acini with signs of medium to high proliferation (Ki67) (mammary epithelial cells; control females, day 3 after MPA s.c. implantation)	proliferation of mammary epithelial cells (mammary epithelial cells; wild type population, MPA treatment)	proliferation of mammary gland epithelial cells (mammary epithelial cells; nulliparous females, 1 day after i.p. injection of RANKL (1 μg))
CC(=O)O[C@]1(C(C)=O)CC[C@H]2[C@@H]3C[C@H](C)C4=CC(=O)CC[C@]4(C)[C@H]3CC[C@@]21C [MPA, medroxyprogesterone acetate]	induced RANKL mRNA and protein expression	significantly reduced	more than 60%	~80%	triggers massive proliferation of mammary epithelial cells	–
RANKL: Receptor Activator of NF-κB Ligand; recombinant murine RANKL used for stimulation (protein, UniProt O35235 139-316, looked up) Tumor necrosis factor ligand …: FSGAPAMMEGSWLDVAQRGKPEAQPFAHLTINAASIPSGSHKVTLSSWYHDRGWAKISNMTLSNGKLRVNQDGFYYLYANICFRHHETSGSVPTDYLQLMVYVVKTSIKIPSSHNLMKGGSTKNWSGNSEFHFYSINVGGFFKLRAGEEISIQVSNPSLLDPDQDATYFGAFKVQDID	–	–	–	–	–	triggered proliferation of mammary gland epithelial cells
